Measured values published in ChEMBL document CHEMBL5113381, “Large-Scale Screening of Antifungal Peptides Based on Quantitative Structure-Activity Relationship” (2022).
≈ marks a conversion by molar mass, not a printed value. Values belong to the compound of their own block, whether it stands above or below them. Peptide text beside a SMILES is read from it.

Key:
Type in all cases: functional
Cryptococcus neoformans = test: Antifungal activity against Cryptococcus neoformans H99 measured after 24 to 48 hrs by CLSI method; settings: time 24-48 hrs
Candida parapsilosis = test: Antifungal activity against Candida parapsilosis ATCC 22019 measured after 24 to 48 hrs by CLSI method; settings: Lodderomyces parapsilosis, time 24-48 hrs
Candida albicans = test: Antifungal activity against Candida albicans SC5314 measured after 24 to 48 hrs by CLSI method; settings: time 24-48 hrs
Pichia kudriavzevii = test: Antifungal activity against Candida krusei IFM56881 measured after 24 to 48 hrs by CLSI method; settings: time 24-48 hrs

SMILES: CC[C@H](C)[C@H](NC(=O)CNC(=O)[C@H](CCCNC(=N)N)NC(=O)[C@H](Cc1ccc(O)cc1)NC(=O)[C@H](CS)NC(=O)[C@@H](NC(=O)[C@H](CCCNC(=N)N)NC(=O)[C@H](Cc1ccccc1)NC(=O)[C@H](CS)NC(=O)[C@H](Cc1c[nH]c2ccccc12)NC(=O)[C@@H](N)CCCCN)C(C)C)C(=O)N[C@@H](CS)C(=O)N[C@@H](Cc1ccc(O)cc1)C(=O)N[C@@H](CCCNC(=N)N)C(=O)N[C@@H](CCCCN)C(=O)N[C@@H](CS)C(=O)N[C@@H](CCCNC(=N)N)C(=O)O (H-KWCFRVCYRGICYRKCR-OH)
MIC (Cryptococcus neoformans): 1.79 µM (≈ 4.01 µg/mL) | MIC (Candida parapsilosis): 7.14 µM (≈ 16 µg/mL) | MIC (Candida albicans): 14.3 µM (≈ 32 µg/mL) | MIC (Pichia kudriavzevii): 28.6 µM (≈ 64 µg/mL)

SMILES: CC[C@H](C)[C@H](NC(=O)CNC(=O)[C@H](CCCNC(=N)N)NC(=O)[C@H](Cc1ccc(O)cc1)NC(=O)[C@H](CS)NC(=O)[C@@H](NC(=O)[C@H](CCCNC(=N)N)NC(=O)[C@H](Cc1ccccc1)NC(=O)[C@H](CS)NC(=O)[C@H](Cc1c[nH]c2ccccc12)NC(=O)[C@@H](N)CCCCN)C(C)C)C(=O)N[C@@H](CS)C(=O)N[C@@H](Cc1ccc(O)cc1)C(=O)N[C@@H](CCCNC(=N)N)C(=O)N[C@@H](CCCNC(=N)N)C(=O)N[C@@H](CS)C(=O)N[C@@H](CCCNC(=N)N)C(=O)O (H-KWCFRVCYRGICYRRCR-OH)
MIC (Cryptococcus neoformans): 3.53 µM (≈ 8.01 µg/mL) | MIC (Candida parapsilosis): 7.05 µM (≈ 16 µg/mL) | MIC (Candida albicans): 14.1 µM (≈ 32 µg/mL) | MIC (Pichia kudriavzevii): 28.2 µM (≈ 64 µg/mL)

SMILES: CC[C@H](C)[C@H](NC(=O)CNC(=O)[C@H](C)NC(=O)[C@H](CC(C)C)NC(=O)[C@H](C)NC(=O)[C@H](Cc1c[nH]c2ccccc12)NC(=O)[C@H](CC(C)C)NC(=O)[C@H](CCCCN)NC(=O)[C@H](CCCCN)NC(=O)[C@H](Cc1ccc(O)cc1)NC(=O)[C@H](CCCCN)NC(=O)[C@@H](N)CCSC)C(=O)N[C@@H](C)C(=O)N[C@@H](CC(C)C)C(=O)N[C@@H](CO)C(=O)N[C@@H](CS)C(=O)N[C@@H](CC(N)=O)C(=O)N[C@@H](CC(C)C)C(=O)N[C@@H](CC(C)C)C(=O)N[C@@H](CC(C)C)C(=O)N[C@H](C(=O)N[C@@H](C)C(=O)O)[C@@H](C)O (H-MKYKKLWALAGIALSCNLLLTA-OH)
MIC (Cryptococcus neoformans): > 106 µM | MIC (Candida parapsilosis): > 106 µM | MIC (Candida albicans): > 106 µM | MIC (Pichia kudriavzevii): > 106 µM

SMILES: CC[C@H](C)[C@H](NC(=O)[C@@H](NC(=O)[C@H](Cc1ccccc1)NC(=O)[C@H](CS)NC(=O)[C@@H](NC(=O)[C@H](CC(C)C)NC(=O)[C@H](Cc1ccccc1)NC(=O)[C@@H](NC(=O)[C@H](Cc1ccccc1)NC(=O)CNC(=O)[C@H](Cc1ccccc1)NC(=O)[C@H](CCCCN)NC(=O)[C@H](CCCCN)NC(=O)[C@H](CCCCN)NC(=O)[C@H](CC(C)C)NC(=O)[C@@H](N)CCSC)C(C)C)C(C)C)C(C)C)C(=O)N[C@@H](Cc1ccccc1)C(=O)N[C@@H](Cc1cnc[nH]1)C(=O)N[C@@H](CO)C(=O)N[C@@H](CS)C(=O)N[C@@H](CCCCN)C(=O)O (H-MLKKKFGFVFLVCFVIFHSCK-OH)
MIC (Cryptococcus neoformans): > 102 µM | MIC (Candida parapsilosis): > 102 µM | MIC (Candida albicans): > 102 µM | MIC (Pichia kudriavzevii): > 102 µM

SMILES: CC[C@H](C)[C@H](NC(=O)[C@H](CCCCN)NC(=O)[C@H](CO)NC(=O)[C@H](Cc1ccccc1)NC(=O)[C@@H](NC(=O)[C@@H](NC(=O)[C@H](CCCNC(=N)N)NC(=O)[C@H](Cc1ccccc1)NC(=O)[C@@H](NC(=O)[C@H](CCCCN)NC(=O)[C@H](CC(N)=O)NC(=O)[C@@H](N)CCSC)[C@@H](C)CC)C(C)C)[C@@H](C)CC)C(=O)N[C@@H](CC(C)C)C(=O)NCC(=O)N[C@@H](CCCNC(=N)N)C(=O)N[C@@H](CC(C)C)C(=O)N[C@H](C(=O)N[C@H](C(=O)N[C@H](C(=O)O)[C@@H](C)O)C(C)C)[C@@H](C)CC (H-MNKIFRVIFSKILGRLIVT-OH)
MIC (Cryptococcus neoformans): 7.12 µM (≈ 16 µg/mL) | MIC (Candida parapsilosis): 14.2 µM (≈ 32 µg/mL) | MIC (Candida albicans): 14.2 µM (≈ 32 µg/mL) | MIC (Pichia kudriavzevii): 56.9 µM (≈ 128 µg/mL)

SMILES: CC[C@H](C)[C@H](NC(=O)[C@H](CCCCN)NC(=O)[C@H](CC(C)C)NC(=O)[C@H](Cc1ccccc1)NC(=O)[C@H](CC(C)C)NC(=O)[C@H](Cc1ccccc1)NC(=O)[C@@H](NC(=O)[C@H](CO)NC(=O)[C@H](CO)NC(=O)[C@@H](NC(=O)[C@H](Cc1ccccc1)NC(=O)[C@@H](NC(=O)[C@H](CO)NC(=O)[C@H](Cc1ccc(O)cc1)NC(=O)[C@@H](N)CCSC)C(C)C)[C@@H](C)CC)[C@@H](C)CC)C(=O)N[C@@H](CCCNC(=N)N)C(=O)N[C@@H](Cc1ccccc1)C(=O)N[C@@H](CCCCN)C(=O)N[C@@H](CC(C)C)C(=O)N[C@@H](Cc1ccc(O)cc1)C(=O)N1CCC[C@H]1C(=O)N[C@@H](CCCNC(=N)N)C(=O)O (H-MYSVFISSIFLFLKIRFKLYPR-OH)
MIC (Cryptococcus neoformans): > 92.4 µM | MIC (Candida parapsilosis): > 92.4 µM | MIC (Candida albicans): > 92.4 µM | MIC (Pichia kudriavzevii): > 92.4 µM

SMILES: CC(C)C[C@H](NC(=O)[C@H](CCC(=O)O)NC(=O)[C@H](CCCCN)NC(=O)[C@H](CC(C)C)NC(=O)[C@@H](NC(=O)[C@@H]1CCCN1)C(C)C)C(=O)N[C@@H](CCCCN)C(=O)N[C@@H](CO)C(=O)N[C@H](C(=O)N[C@@H](CCC(N)=O)C(=O)N[C@@H](CCCCN)C(=O)N[C@H](C(=O)N[C@@H](CCCCN)C(=O)N[C@@H](CO)C(=O)NCC(=O)N[C@@H](CC(=O)O)C(=O)N[C@H](C(=O)N[C@@H](CC(C)C)C(=O)N[C@@H](Cc1ccc(O)cc1)C(=O)O)[C@@H](C)O)[C@@H](C)O)C(C)C (H-PVLKELKSVQKTKSGDTLY-OH)
MIC (Cryptococcus neoformans): > 120 µM | MIC (Candida parapsilosis): > 120 µM | MIC (Candida albicans): > 120 µM | MIC (Pichia kudriavzevii): > 120 µM

More lines, now with the values ahead:

MIC (Cryptococcus neoformans): 2.31 µM (≈ 8.02 µg/mL) | MIC (Candida parapsilosis): 18.4 µM (≈ 64 µg/mL) | MIC (Candida albicans): > 73.8 µM | MIC (Pichia kudriavzevii): > 73.8 µM
SMILES: CSCC[C@H](NC(=O)[C@H](CCCNC(=N)N)NC(=O)[C@H](CCCCN)NC(=O)[C@H](CCCCN)NC(=O)[C@H](CCCCN)NC(=O)[C@H](Cc1c[nH]c2ccccc12)NC(=O)[C@H](CCCCN)NC(=O)[C@@H]1CCCN1C(=O)[C@H](CCCNC(=N)N)NC(=O)[C@@H](N)CCSC)C(=O)N[C@@H](CCCNC(=N)N)C(=O)N[C@@H](CCCNC(=N)N)C(=O)N[C@@H](CC(C)C)C(=O)N[C@@H](CCCCN)C(=O)N[C@@H](CCCNC(=N)N)C(=O)N[C@@H](CCCCN)C(=O)N[C@@H](CCCNC(=N)N)C(=O)N[C@@H](CCCCN)C(=O)N[C@@H](CCC(N)=O)C(=O)N[C@@H](CCCNC(=N)N)C(=O)N[C@@H](CCCNC(=N)N)C(=O)N[C@@H](C)C(=O)N[C@@H](CCCNC(=N)N)C(=O)N[C@@H](Cc1ccc(O)cc1)C(=O)N[C@@H](CCCCN)C(=O)O

MIC (Cryptococcus neoformans): 37.4 µM (≈ 128 µg/mL) | MIC (Candida parapsilosis): > 74.9 µM | MIC (Candida albicans): > 74.9 µM | MIC (Pichia kudriavzevii): > 74.9 µM
SMILES: CSCC[C@H](N)C(=O)N[C@@H](C)C(=O)N[C@H](C(=O)N[C@@H](CCCCN)C(=O)N[C@@H](CCCCN)C(=O)N[C@@H](CCCCN)C(=O)N[C@H](C(=O)N[C@H](C(=O)N[C@@H](CCCCN)C(=O)N[C@@H](CCCCN)C(=O)N[C@@H](C)C(=O)N[C@H](C(=O)N[C@@H](CCCCN)C(=O)N[C@@H](CCCCN)C(=O)N[C@H](C(=O)N[C@@H](C)C(=O)N[C@@H](CCCCN)C(=O)N[C@@H](CCCCN)C(=O)N[C@@H](C)C(=O)N1CCC[C@H]1C(=O)N[C@@H](CCCCN)C(=O)N[C@@H](CCCCN)C(=O)N[C@@H](C)C(=O)N[C@H](C(=O)N[C@@H](CCCCN)C(=O)N[C@@H](CCCCN)C(=O)N[C@H](C(=O)N[C@@H](C)C(=O)N[C@@H](CCCCN)C(=O)N[C@@H](CCCCN)C(=O)N[C@@H](CCCCN)C(=O)O)C(C)C)C(C)C)C(C)C)C(C)C)C(C)C)C(C)C)[C@@H](C)O (H-MATKKKVVKKAVKKVAKKAPKKAVKKVAKKK-OH)

MIC (Cryptococcus neoformans): 92.2 µM (≈ 256 µg/mL) | MIC (Candida parapsilosis): > 92.2 µM | MIC (Candida albicans): > 92.2 µM | MIC (Pichia kudriavzevii): > 92.2 µM
SMILES: CC[C@H](C)[C@H](NC(=O)[C@H](CCC(N)=O)NC(=O)[C@H](CCCCN)NC(=O)[C@H](CCCCN)NC(=O)[C@H](Cc1c[nH]c2ccccc12)NC(=O)[C@@H]1CCCN1C(=O)[C@@H](NC(=O)[C@H](CC(C)C)NC(=O)[C@H](CCCNC(=N)N)NC(=O)[C@H](CC(C)C)NC(=O)[C@@H](NC(=O)[C@H](CC(C)C)NC(=O)[C@@H]1CCCN1C(=O)[C@H](CCCCN)NC(=O)[C@H](Cc1cnc[nH]1)NC(=O)[C@H](CS)NC(=O)[C@H](CCCCN)NC(=O)[C@H](CCCNC(=N)N)NC(=O)[C@H](CC(C)C)NC(=O)[C@H](CCCNC(=N)N)NC(=O)[C@@H](N)CCSC)[C@@H](C)O)C(C)C)C(=O)N[C@@H](CCSC)C(=O)O (H-MRLRKCHKPLTLRLVPWKKQIM-OH)

MIC (Cryptococcus neoformans): 5.47 µM (≈ 16 µg/mL) | MIC (Candida parapsilosis): 43.8 µM (≈ 128 µg/mL) | MIC (Candida albicans): 43.8 µM (≈ 128 µg/mL) | MIC (Pichia kudriavzevii): 21.9 µM (≈ 64 µg/mL)
SMILES: CC[C@H](C)[C@H](NC(=O)[C@H](CCCCN)NC(=O)[C@@H](NC(=O)[C@@H](N)CCSC)[C@@H](C)O)C(=O)N[C@@H](CC(C)C)C(=O)N[C@@H](CC(C)C)C(=O)N[C@H](C(=O)N[C@H](C(=O)N[C@@H](CCCCN)C(=O)N[C@@H](CCCNC(=N)N)C(=O)N[C@@H](CC(C)C)C(=O)N[C@@H](CCCNC(=N)N)C(=O)N[C@H](C(=O)N[C@H](C(=O)N[C@@H](Cc1ccc(O)cc1)C(=O)N[C@H](C(=O)N[C@@H](CCCCN)C(=O)N[C@@H](CCCNC(=N)N)C(=O)N[C@@H](CS)C(=O)N[C@@H](CC(C)C)C(=O)N[C@@H](CS)C(=O)N[C@@H](Cc1ccccc1)C(=O)N[C@@H](CCCNC(=N)N)C(=O)N[C@@H](C)C(=O)O)[C@@H](C)O)C(C)C)[C@@H](C)O)C(C)C)[C@@H](C)CC (H-MTKILLIVKRLRTVYTKRCLCFRA-OH)

MIC (Cryptococcus neoformans): 8.84 µM (≈ 32 µg/mL) | MIC (Candida parapsilosis): 4.42 µM (≈ 16 µg/mL) | MIC (Candida albicans): > 70.7 µM | MIC (Pichia kudriavzevii): > 70.7 µM
SMILES: CC[C@H](C)[C@H](NC(=O)[C@H](C)NC(=O)[C@H](CCCCN)NC(=O)[C@H](CCCNC(=N)N)NC(=O)[C@@H](NC(=O)[C@H](CCCNC(=N)N)NC(=O)[C@H](CCCNC(=N)N)NC(=O)CNC(=O)[C@H](Cc1ccc(O)cc1)NC(=O)[C@H](CCCNC(=N)N)NC(=O)[C@H](C)NC(=O)CNC(=O)[C@H](Cc1ccccc1)NC(=O)[C@H](CCCNC(=N)N)NC(=O)CNC(=O)[C@H](C)NC(=O)[C@H](CO)NC(=O)[C@H](CCCCN)NC(=O)[C@@H](NC(=O)[C@H](CCCCN)NC(=O)[C@@H](NC(=O)CNC(=O)[C@H](CCCCN)NC(=O)[C@H](CCCCN)NC(=O)[C@H](CCCNC(=N)N)NC(=O)[C@H](CCCCN)NC(=O)[C@H](CCC(N)=O)NC(=O)[C@H](CCCCN)NC(=O)[C@H](CCCCN)NC(=O)[C@@H](NC(=O)[C@@H](N)CCSC)[C@@H](C)O)[C@@H](C)CC)[C@@H](C)O)[C@@H](C)CC)C(=O)O (H-MTKKQKRKKGIKTKSAGRFGARYGRRIRKAI-OH)
